Data on 32 compounds can be found in patent US7951829B2, “Benzimidazole modulators of VR1” (Janssen Pharmaceutica NV, priority 2006, dated 2011).

SMILES strings stand for the structures.

The target in this experiment is T1, hVR1 (Homo sapiens, UniProt Q8NER1).
T1 construct: expressed in transfected cells; host or cells: HEK293
In words: Human VR1 (hVR1) Functional Assay (FLIPR intracellular calcium, capsaicin challenge). Type of experiment: cell-based. Particulars: capsaicin 0.030 μM, HEK293 cells expressing hVR1; for inhibition at 1 µM: test concentration 1 μM. (In general: Calcium flux is commonly read through the fluorescence of an indicator in the cells.)

As a reminder, the IC50 is the midpoint of a concentration-inhibition curve. In general, inhibition refers to the drop in the measured response relative to a control, in per cent.

T1 sequence (Q8NER1 whole entry): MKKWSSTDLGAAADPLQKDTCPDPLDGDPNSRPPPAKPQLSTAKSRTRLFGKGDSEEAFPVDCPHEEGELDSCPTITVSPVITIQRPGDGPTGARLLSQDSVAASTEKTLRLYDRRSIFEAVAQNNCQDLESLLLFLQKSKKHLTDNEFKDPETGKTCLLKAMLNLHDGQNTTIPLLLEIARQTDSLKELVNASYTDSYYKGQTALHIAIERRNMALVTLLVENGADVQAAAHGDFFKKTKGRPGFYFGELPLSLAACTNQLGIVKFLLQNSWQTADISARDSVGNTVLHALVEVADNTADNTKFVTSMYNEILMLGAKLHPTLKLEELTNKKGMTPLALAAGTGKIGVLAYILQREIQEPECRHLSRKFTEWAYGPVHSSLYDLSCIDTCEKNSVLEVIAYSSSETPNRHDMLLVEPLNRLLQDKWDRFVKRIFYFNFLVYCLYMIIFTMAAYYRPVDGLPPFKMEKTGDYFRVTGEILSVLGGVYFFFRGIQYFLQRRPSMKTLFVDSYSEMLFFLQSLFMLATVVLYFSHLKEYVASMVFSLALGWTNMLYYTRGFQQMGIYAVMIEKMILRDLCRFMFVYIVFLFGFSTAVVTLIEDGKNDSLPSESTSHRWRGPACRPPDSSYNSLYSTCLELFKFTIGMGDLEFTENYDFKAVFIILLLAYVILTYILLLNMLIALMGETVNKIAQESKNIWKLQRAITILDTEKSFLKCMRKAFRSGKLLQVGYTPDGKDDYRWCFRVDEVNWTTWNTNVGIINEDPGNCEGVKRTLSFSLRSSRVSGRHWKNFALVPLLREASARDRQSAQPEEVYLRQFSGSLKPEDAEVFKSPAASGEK

Take `CS(=O)(=O)c1ccccc1-c1ccc2[nH]c(C3CC3c3ccc(C(F)(F)F)cc3)nc2c1` (centres unmarked) [Cpd 500, 5-(2-methanesulfonyl-phenyl)-2-[2-(4-trifluoromethyl-phenyl)-cyclopropyl]-1H-benzimidazole]: the IC50 came out at 19 nM and the inhibition at 1 µM came out at 97%.

With `CNS(=O)(=O)c1ccccc1-c1ccc2[nH]c(/C=C/c3ccc4cc[nH]c4c3)nc2c1` [Cpd 454, (E)-2-{2-[2-(1H-indol-6-yl)-vinyl]-1H-benzimidazol-5-yl}-N-methyl-benzenesulfonamide], the inhibition at 1 µM came out at 36%.

Take `OCc1ccccc1-c1cc2nc(/C=C/c3ccc(C(F)(F)F)cc3)[nH]c2cc1C(F)(F)F` [Cpd 58, (E)-(2-{6-trifluoromethyl-2-[2-(4-trifluoromethyl-phenyl)-vinyl]-1H-benzimidazol-5-yl}-phenyl)-methanol]: the IC50 is 95 nM and the inhibition at 1 µM was determined as 87%.

In the case of `CC(C)(C)NS(=O)(=O)c1ccccc1-c1ccc2[nH]c(/C=C/c3ccc(C(F)(F)F)cc3)nc2c1` [Cpd 309, (E)-N-tert-butyl-2-{2-[2-(4-trifluoromethyl-phenyl)-vinyl]-1H-benzimidazol-5-yl}-benzenesulfonamide], the inhibition at 1 µM is 73%.

For the compound `Cn1c(/C=C/c2ccc(C(F)(F)F)cc2)nc2cc(-c3ccccc3NS(C)(=O)=O)ccc21` [Cpd 477, (E)-N-(2-{1-methyl-2-[2-(4-trifluoromethyl-phenyl)-vinyl]-1H-benzimidazol-5-yl}-phenyl)-methanesulfonamide], the inhibition at 1 µM came out at 44%.

For `OCc1ccccc1-c1cc2nc(/C=C/c3ccc(C(F)(F)F)cc3)[nH]c2cc1Cl` [Cpd 66, (E)-(2-{6-chloro-2-[2-(4-trifluoromethyl-phenyl)-vinyl]-1H-benzimidazol-5-yl}-phenyl)-methanol], the IC50 is 48 nM and the inhibition at 1 µM amounted to 98%.

Take `NS(=O)(=O)c1ccccc1-c1ccc2[nH]c(CCc3ccc(F)c(F)c3)nc2c1` [Cpd 393, 2-{2-[2-(3,4-difluoro-phenyl)-ethyl]-1H-benzimidazol-5-yl}-benzenesulfonamide]: the IC50 was 10 nM and the inhibition at 1 µM came to 98%.

`CS(=O)(=O)Nc1ccccc1-c1ccc2[nH]c(/C=C/c3ccc(F)c(F)c3)nc2c1` [Cpd 28, (E)-N-(2-{2-[2-(3,4-difluoro-phenyl)-vinyl]-1H-benzimidazol-5-yl}-phenyl)-methanesulfonamide]: the IC50 worked out at 250 nM and the inhibition at 1 µM stood at 96%.

For the compound `NS(=O)(=O)c1ccccc1-c1ccc2[nH]c(CCc3ccc(Cl)c(C(F)(F)F)c3)nc2c1` [Cpd 390, 2-{2-[2-(4-chloro-3-trifluoromethyl-phenyl)-ethyl]-1H-benzimidazol-5-yl}-benzenesulfonamide], the concentration for half-maximal inhibition (IC50) came to 7 nM and the inhibition at 1 µM worked out at 96%.

With `NS(=O)(=O)c1ccccc1-c1ccc2[nH]c(/C=C/c3cc(F)cc(F)c3)nc2c1` [Cpd 361, (E)-2-{2-[2-(3,5-difluoro-phenyl)-vinyl]-1H-benzimidazol-5-yl}-benzenesulfonamide], the IC50 is 27 nM and the inhibition at 1 µM was 97%.

Take `NS(=O)(=O)c1ccccc1-c1ccc2[nH]c(/C=C/c3ccccc3C(F)(F)F)nc2c1` [Cpd 364, (E)-2-{2-[2-(2-trifluoromethyl-phenyl)-vinyl]-1H-benzimidazol-5-yl}-benzenesulfonamide]: the IC50 is 65 nM and the inhibition at 1 µM came to 97%.

With `CNS(=O)(=O)c1ccccc1-c1ccc2[nH]c(/C=C/c3ccc(F)c(F)c3F)nc2c1` [Cpd 323, (E)-N-methyl-2-{2-[2-(2,3,4-trifluoro-phenyl)-vinyl]-1H-benzimidazol-5-yl}-benzenesulfonamide], the IC50 was found to be 40 nM and the inhibition at 1 µM came to 97%.

`NS(=O)(=O)c1ccccc1-c1ccc2[nH]c(/C=C/c3ccc(F)c(Br)c3)nc2c1` [Cpd 439, (E)-2-{2-[2-(3-bromo-4-fluoro-phenyl)-vinyl]-1H-benzimidazol-5-yl}-benzenesulfonamide]: the IC50 worked out at 23 nM and the inhibition at 1 µM amounted to 97%.

Turning to `FC(F)(F)Oc1ccccc1-c1ccc2[nH]c(/C=C/c3ccc(C(F)(F)F)cc3)nc2c1` [Cpd 488, (E)-5-(2-trifluoromethoxy-phenyl)-2-[2-(4-trifluoromethyl-phenyl)-vinyl]-1H-benzimidazole], the inhibition at 1 µM is 4%.

Take `CC(O)c1ccccc1-c1ccc2[nH]c(CCc3ccc(S(=O)(=O)C(F)(F)F)cc3)nc2c1` (centres unmarked) [Cpd 46, 1-(2-{2-[2-(4-trifluoromethanesulfonyl-phenyl)-ethyl]-1H-benzimidazol-5-yl}-phenyl)-ethanol]: the IC50 is 46 nM and the inhibition at 1 µM was 100%.

As for `CC(C)(C)c1ccc(/C=C/c2nc3cc(-c4ccccc4C(C)(C)O)ccc3[nH]2)cc1` [Cpd 463, (E)-2-(2-{2-[2-(4-tert-butyl-phenyl)-vinyl]-1H-benzimidazol-5-yl}-phenyl)-propan-2-ol], the IC50 was 14 nM and the inhibition at 1 µM came out at 100%.

Take `NS(=O)(=O)c1ccc(F)cc1-c1ccc2[nH]c(/C=C/c3ccc(C(F)(F)F)cc3)nc2c1` [Cpd 441, (E)-4-fluoro-2-{2-[2-(4-trifluoromethyl-phenyl)-vinyl]-1H-benzimidazol-5-yl}-benzenesulfonamide]: the inhibition at 1 µM worked out at 40%.

With `CC(C)(C)c1ccc(/C=C/c2nc3cc(-c4ccccc4NS(C)(=O)=O)c(C(F)(F)F)cc3[nH]2)cc1` [Cpd 55, (E)-N-(2-{2-[2-(4-tert-butyl-phenyl)-vinyl]-6-trifluoromethyl-1H-benzimidazol-5-yl}-phenyl)-methanesulfonamide], the inhibition at 1 µM was 14%.

`FC(F)(F)c1ccc(/C=C/c2nc3cc(-c4ccccc4C(F)(F)F)ccc3[nH]2)cc1` [Cpd 487, (E)-5-(2-trifluoromethyl-phenyl)-2-[2-(4-trifluoromethyl-phenyl)-vinyl]-1H-benzimidazole]: the inhibition at 1 µM turned out to be 20%.

For `O=S(=O)(CC(F)(F)F)Nc1ccccc1-c1ccc2[nH]c(/C=C/c3ccc(C(F)(F)F)cc3)nc2c1` [Cpd 459, (E)-2,2,2-trifluoro-ethanesulfonic acid (2-{2-[2-(4-trifluoromethyl-phenyl)-vinyl]-1H-benzimidazol-5-yl}-phenyl)-amide], the inhibition at 1 µM was 0%.

Regarding `CNS(=O)(=O)c1ccccc1-c1ccc2[nH]c(/C=C/c3ccc(SC(F)(F)F)cc3)nc2c1` [Cpd 341, (E)-N-methyl-2-{2-[2-(4-trifluoromethylsulfanyl-phenyl)-vinyl]-1H-benzimidazol-5-yl}-benzenesulfonamide], the IC50 worked out at 6 nM and the inhibition at 1 µM turned out to be 99%.

On to `CC(=O)Nc1ccccc1-c1ccc2[nH]c(/C=C/c3ccc(S(=O)(=O)C(F)(F)F)cc3)nc2c1` [Cpd 43, (E)-N-(2-{2-[2-(4-trifluoromethanesulfonyl-phenyl)-vinyl]-1H-benzimidazol-5-yl}-phenyl)-acetamide], for which the IC50 was determined as 890 nM and the inhibition at 1 µM was 58%.

As for `CN(C)S(=O)(=O)c1ccccc1-c1ccc2[nH]c(/C=C/c3ccc(C(F)(F)F)cc3)nc2c1` [Cpd 398, (E)-N,N-dimethyl-2-{2-[2-(4-trifluoromethyl-phenyl)-vinyl]-1H-benzimidazol-5-yl}-benzenesulfonamide], the IC50 is 3 nM and the inhibition at 1 µM was 97%.

With `OCc1ccccc1-c1ccc2[nH]c(/C=C/c3ccc(C(F)(F)F)cc3)nc2c1` [Cpd 476, (E)-(2-{2-[2-(4-trifluoromethyl-phenyl)-vinyl]-1H-benzimidazol-5-yl}-phenyl)-methanol], the IC50 was 68 nM.

For the compound `CC(=O)Nc1cccc(-c2ccc3[nH]c(/C=C/c4ccc(F)c(F)c4)nc3c2)c1` [Cpd 25, (E)-N-(3-{2-[2-(3,4-difluoro-phenyl)-vinyl]-1H-benzimidazol-5-yl}-phenyl)-acetamide], the inhibition at 1 µM was found to be 4%.

For `CS(=O)(=O)Nc1ccccc1-c1ccc2[nH]c(/C=C/c3ccc(OCC(F)(F)C(F)(F)F)cc3)nc2c1` [Cpd 101, (E)-N-[2-(2-{2-[4-(2,2,3,3,3-pentafluoro-propoxy)-phenyl]-vinyl}-1H-benzimidazol-5-yl)-phenyl]-methanesulfonamide], the IC50 was more than 500 nM.

In the case of `COC(=O)Nc1ccccc1-c1ccc2[nH]c(/C=C/c3ccc(C(F)(F)F)cc3)nc2c1` [Cpd 462, (E)-(2-{2-[2-(4-trifluoromethyl-phenyl)-vinyl]-1H-benzimidazol-5-yl}-phenyl)-carbamic acid methyl ester], the IC50 worked out at 97 nM and the inhibition at 1 µM is 98%.

`NS(=O)(=O)c1ccccc1-c1ccc2[nH]c(/C=C/c3cccc(C(F)(F)F)c3F)nc2c1` [Cpd 368, (E)-2-{2-[2-(2-fluoro-3-trifluoromethyl-phenyl)-vinyl]-1H-benzimidazol-5-yl}-benzenesulfonamide]: the IC50 is 15 nM and the inhibition at 1 µM was determined as 99%.

For `CS(=O)(=O)Nc1ccccc1-c1ccc2[nH]c(/C=C/c3ccc(Cl)cc3)nc2c1` [Cpd 77, (E)-N-(2-{2-[2-(4-chloro-phenyl)-vinyl]-1H-benzimidazol-5-yl}-phenyl)-methanesulfonamide], the IC50 stood at 76 nM and the inhibition at 1 µM was found to be 100%.

Regarding `NS(=O)(=O)c1ccccc1-c1ccc2[nH]c(/C=C/c3cccc(F)c3F)nc2c1` [Cpd 359, (E)-2-{2-[2-(2,3-difluoro-phenyl)-vinyl]-1H-benzimidazol-5-yl}-benzenesulfonamide], the IC50 was 24 nM and the inhibition at 1 µM is 98%.

Take `NS(=O)(=O)c1ccccc1-c1ccc2[nH]c(CCc3ccc(F)cc3C(F)(F)F)nc2c1` [Cpd 404, 2-{2-[2-(4-fluoro-2-trifluoromethyl-phenyl)-ethyl]-1H-benzimidazol-5-yl}-benzenesulfonamide]: the IC50 stood at 47 nM and the inhibition at 1 µM was found to be 94%.

For `CNS(=O)(=O)c1ccccc1-c1ccc2[nH]c(/C=C/c3cccc(OC(F)(F)F)c3)nc2c1` [Cpd 344, (E)-N-methyl-2-{2-[2-(3-trifluoromethoxy-phenyl)-vinyl]-1H-benzimidazol-5-yl}-benzenesulfonamide], the IC50 came out at 24 nM and the inhibition at 1 µM worked out at 101%.
